Data as given in paper PMC2120067 (The Journal of Cell Biology, 1994).

Columns and labels:
[1] = system: angiogenic bovine aortic endothelial (BAE) cells; assay: Quantitation of endothelial cord formation; type: cell-based
[2] = system: new vessel growth in vivo; settings: ref Raju et al., 1982; cited from earlier work
[3] = system: chicken chorioallantoic membrane (CAM); assay: CAM angiogenesis assay; type: in vivo; settings: methylcellulose disk on chick CAM
[4] = Copper-binding study by electrospray mass spectrometry; settings: 10 µM KGHK and KGRK mixed with 8 µM Cu2+, electrospray MS
[5] = Magnesium-binding control by electrospray mass spectrometry; settings: 20 µM KGHK + 50 µM MgSO4 in 20 mM NH4HCO3 (pH 7.5), electrospray MS
[6] = Spectroscopic analysis of copper binding; settings: saturable; not displaced with 100-fold excesses of Na, K, Ca, or Mg ions; not shown

Substance: N-gly- cyl-L-histidyl-L-lysine-OH [GHK]
- Stimulation of endothelial cord formation, peptide pretreated with CuSO4 ([1]; pretreatment of peptide with CuSO4, not shown): significant angiogenic stimulation
- Stimulation of new vessel growth in vivo [2]: little effect

Substance: bovine serum albumin: control protein [reference compound]
- Stimulation of endothelial cord formation ([1]; bovine serum albumin, concentration not given): no stimulatory effect

Substance: KGHK [N-lysyl-L-glycyl-L-histidyl-L-lysine- OH]
- Lowest application eliciting angiogenic activity in the CAM [3]: 50 ng/disk
- Direct competition for limiting copper ions [4]: all copper ions were sequestered in a KGHK:Cu complex
- Formation of 1:1 complex with magnesium [5]: did not form
- Change of absorbance on addition of copper ions [6]: increase in absorbance at 580 nm
